# Activity calls are given as the source filed them. No cut-off for these calls is given here.
# Experiments:
# [1] = target: Delta-type opioid receptor (Homo sapiens) (UniProt P41143); assay: Antagonist activity at human delta-opioid receptor expressed in CHO cell membranes assessed as inhibition of DPDPE-induced [35S]GTPgammaS binding incubated for 60 mins by scintillation counting method; assay type: functional
# [2] = target: Mu-type opioid receptor (Homo sapiens) (UniProt P35372); assay: Agonist activity at human mu-opioid receptor expressed in CHO cell membranes assessed as stimulation of [35S]GTPgammaS binding at 10 uM incubated for 60 mins by scintillation counting method; assay type: functional
# [3] = target: Delta-type opioid receptor (Homo sapiens) (UniProt P41143); assay: Agonist activity at human delta-opioid receptor expressed in CHO cell membranes assessed as stimulation of [35S]GTPgammaS binding at 10 uM incubated for 60 mins by scintillation counting method; assay type: functional
# [4] = target: Kappa-type opioid receptor (Homo sapiens) (UniProt P41145); assay: Agonist activity at human kappa-opioid receptor expressed in CHO cell membranes assessed as stimulation of [35S]GTPgammaS binding at 10 uM incubated for 60 mins by scintillation counting method; assay type: functional
# [5] = Half life in plasma of Sprague-Dawley CD rat at 5 mg/kg, sc administered as single dose measured over 1 to 168 hrs post dose by LC/MS-MS method; assay type: ADME, organism-based
# [6] = Clearance in plasma of Sprague-Dawley CD rat at 5 mg/kg, sc administered as single dose measured over 1 to 168 hrs post dose by LC/MS-MS method; assay type: ADME, organism-based
# [7] = AUClast in plasma of Sprague-Dawley CD rat at 5 mg/kg, sc administered as single dose measured over 1 to 168 hrs post dose by LC/MS-MS method; assay type: ADME, organism-based; parameters: dose 5 mg/kg, route subcutaneous, time 0 - last
# [8] = Total AUC in plasma of Sprague-Dawley CD rat at 5 mg/kg, sc administered as single dose measured over 1 to 168 hrs post dose by LC/MS-MS method; assay type: ADME, organism-based; parameters: dose 5 mg/kg, route subcutaneous, time AUCmax
# [9] = Ratio of AUClast in brain to plasma of Sprague-Dawley CD rat at 5 mg/kg, sc administered as single dose measured over 1 to 168 hrs post dose by LC/MS-MS method; assay type: ADME, organism-based; settings: brain
# [10] = Drug level in plasma of Sprague-Dawley CD rat at 5 mg/kg, sc administered as single dose measured after 168 hrs post dose by LC/MS-MS method; assay type: ADME, organism-based; settings: in vivo
# [11] = Drug level in brain of Sprague-Dawley CD rat at 5 mg/kg, sc administered as single dose measured after 168 hrs post dose by LC/MS-MS method; assay type: ADME, organism-based; settings: in vivo
# [12] = Half life in brain of Sprague-Dawley CD rat at 5 mg/kg, sc administered as single dose measured over 1 to 168 hrs post dose by LC/MS-MS method; assay type: ADME, organism-based
# [13] = AUClast in brain of Sprague-Dawley CD rat at 5 mg/kg, sc administered as single dose measured over 1 to 168 hrs post dose by LC/MS-MS method; assay type: ADME, organism-based; settings: in vivo
# [14] = Total AUC in brain of Sprague-Dawley CD rat at 5 mg/kg, sc administered as single dose measured over 1 to 168 hrs post dose by LC/MS-MS method; assay type: ADME, organism-based; parameters: dose 5 mg/kg, time AUCmax, route subcutaneous; settings: in vivo
# in vivo [15] = settings: Sprague-Dawley CD, rat, plasma, sc, 5 mg/kg
# in vivo [16] = settings: Sprague-Dawley CD, rat, brain, sc, 5 mg/kg
# Delta-type opioid receptor (Homo sapiens), sequence (P41143 whole entry): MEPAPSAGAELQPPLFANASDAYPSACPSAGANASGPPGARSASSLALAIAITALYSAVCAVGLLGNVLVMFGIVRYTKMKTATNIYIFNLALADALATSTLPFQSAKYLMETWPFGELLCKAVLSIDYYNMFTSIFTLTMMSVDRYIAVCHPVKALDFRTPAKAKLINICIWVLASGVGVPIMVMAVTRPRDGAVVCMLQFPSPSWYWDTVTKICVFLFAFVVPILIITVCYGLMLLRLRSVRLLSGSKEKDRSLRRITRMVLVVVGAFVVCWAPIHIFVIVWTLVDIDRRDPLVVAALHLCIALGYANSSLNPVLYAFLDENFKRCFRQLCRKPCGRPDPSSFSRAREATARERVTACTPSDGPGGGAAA
# Kappa-type opioid receptor (Homo sapiens), sequence (P41145 whole entry): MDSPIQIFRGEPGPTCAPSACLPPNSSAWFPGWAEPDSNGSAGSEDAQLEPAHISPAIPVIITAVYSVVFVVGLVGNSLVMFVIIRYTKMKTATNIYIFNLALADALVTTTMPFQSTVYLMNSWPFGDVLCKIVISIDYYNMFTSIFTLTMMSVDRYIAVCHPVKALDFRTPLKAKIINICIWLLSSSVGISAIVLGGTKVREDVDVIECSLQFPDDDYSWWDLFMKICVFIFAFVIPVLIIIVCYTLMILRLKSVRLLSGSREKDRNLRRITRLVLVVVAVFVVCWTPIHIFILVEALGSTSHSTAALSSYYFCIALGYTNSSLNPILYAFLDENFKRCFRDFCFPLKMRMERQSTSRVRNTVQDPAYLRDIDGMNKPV
# Mu-type opioid receptor (Homo sapiens), sequence (P35372 whole entry): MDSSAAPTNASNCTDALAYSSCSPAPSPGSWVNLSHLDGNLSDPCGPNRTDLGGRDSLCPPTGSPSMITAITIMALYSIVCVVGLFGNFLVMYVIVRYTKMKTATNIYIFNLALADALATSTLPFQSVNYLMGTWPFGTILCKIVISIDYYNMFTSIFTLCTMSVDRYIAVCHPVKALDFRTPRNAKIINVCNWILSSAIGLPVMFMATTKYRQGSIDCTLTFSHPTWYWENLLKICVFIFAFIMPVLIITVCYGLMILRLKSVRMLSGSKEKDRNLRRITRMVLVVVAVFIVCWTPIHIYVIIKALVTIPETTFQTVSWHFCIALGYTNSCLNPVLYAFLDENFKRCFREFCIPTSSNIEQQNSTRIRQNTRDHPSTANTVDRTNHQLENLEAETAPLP
smiles,measurement,setting,value
CC1CCN(C[C@@H](NC(=O)[C@H]2Cc3ccc(O)cc3CN2)C(C)C)CC1,Ke,[1],> 3000 nM
same,Activity,[2],inactive
same,Activity,[3],inactive
same,Activity,[4],inactive
same,half-life,[5],30.7 h
same,CL/F,[6],43.8 mL/min/kg
same,AUC(0-t),[7],1860 ng·h/mL
same,AUC,[8],1900 ng·h/mL
same,BPR,[9],10.07
same,Drug uptake,[10],Active
same,Drug uptake,[11],Active
same,half-life,[12],57.2 h
same,AUClast,[13],18765 ng·h/g
same,AUC,[14],21400 ng·h/g
same,Tmax,in vivo [15],1 h
same,Tmax,in vivo [16],4 h
